Assay results taken from patent US11878966B2, “Substituted 4-benzyl and 4-benzoyl piperidine derivates” (89BIO LTD, priority 2015, dated 2024).

target: T1, recombinant human baculovirus-expressed GST-tagged FASN (Homo sapiens, UniProt P49327); test: FASN enzyme activity assay: fluorescence-based detection of CoA with CPM; type: biochemical; details: 5 nM FASN, 150 μM NADPH, 10 μM acetyl-CoA, 25 μM malonyl-CoA, 90 minutes incubation
T1 construct: GST; host or cells: baculovirus expression system (insect cells implied)
Text: FASN Enzyme activity may be determined by detecting coenzyme A (CoA), a product of FASN-catalyzed synthesis of palmitate from acetyl-CoA and malonyl-CoA with NADPH as a cofactor. The assay is fluorescence-based and measures the interaction of free CoA with 7-diethylamino-3-(4′-malemimidylphenyl)-4-methylcoumarin (CPM; Life Technologies, CA) as described in Chung et al (2008). The coumarin derivative CPM contains a thiol-reactive maleimide that becomes fluorescent upon interaction with the sulfhydryl group of CoA.
For the example compounds described herein, the reaction was performed in 384-well low volume non-binding platews (Corning, NY) using recombinant human baculovirus-expressed GST-tagged FASN. The 20-μL assay mixture contained 50 mM HEPES (pH 7.5), 5 nM FASN, 150 μM NADPH (Sigma, St. Louis, MO), 10 μM acetyl-CoA (Sigma), 25 μM malonyl-CoA (Sigma) and test compound [diluted in dimethyl sulfoxide (DMSO); 0.5% DMSO final in assay after 100 nL addition]. See, Chung et al.; “A fluorescence-based thiol quantification assay for ultra-high-throughput screening for inhibitors of coenzyme A production,” Assay Drug Dev Tech 2008; 6:361-374.
The reaction was initiated by adding malonyl-CoA, followed by incubation for 90 minutes at […]. A stock solution of the CPM reagent was prepared in DMSO al 66 μM and stored at […]. To detect CoA produced in the FASN reaction, the CPM stock was diluted to 50 μM in 70% ethanol and added at 4 μL/well to the assay place. The reaction mixture was then incubated for 30 minutes. Fluorescence was measured using the EnVision™ 2102 multi-label plate reader (PerkinElmer, Waltham, MA) utilizing a general dual mirror, a 390 nm excitation filter and a 530 nm emission filter. Data analysis was performed using ActivityBase (IDBS, Guilford, UK). IC50 values were calculated by plotting the percent inhibition versus log 10 of the concentration of the compound, and fitting to the nonlinear regression sigmoidal dose-response (variable slope) equation in XLFit (IDBS).

T1 sequence (P49327 whole entry): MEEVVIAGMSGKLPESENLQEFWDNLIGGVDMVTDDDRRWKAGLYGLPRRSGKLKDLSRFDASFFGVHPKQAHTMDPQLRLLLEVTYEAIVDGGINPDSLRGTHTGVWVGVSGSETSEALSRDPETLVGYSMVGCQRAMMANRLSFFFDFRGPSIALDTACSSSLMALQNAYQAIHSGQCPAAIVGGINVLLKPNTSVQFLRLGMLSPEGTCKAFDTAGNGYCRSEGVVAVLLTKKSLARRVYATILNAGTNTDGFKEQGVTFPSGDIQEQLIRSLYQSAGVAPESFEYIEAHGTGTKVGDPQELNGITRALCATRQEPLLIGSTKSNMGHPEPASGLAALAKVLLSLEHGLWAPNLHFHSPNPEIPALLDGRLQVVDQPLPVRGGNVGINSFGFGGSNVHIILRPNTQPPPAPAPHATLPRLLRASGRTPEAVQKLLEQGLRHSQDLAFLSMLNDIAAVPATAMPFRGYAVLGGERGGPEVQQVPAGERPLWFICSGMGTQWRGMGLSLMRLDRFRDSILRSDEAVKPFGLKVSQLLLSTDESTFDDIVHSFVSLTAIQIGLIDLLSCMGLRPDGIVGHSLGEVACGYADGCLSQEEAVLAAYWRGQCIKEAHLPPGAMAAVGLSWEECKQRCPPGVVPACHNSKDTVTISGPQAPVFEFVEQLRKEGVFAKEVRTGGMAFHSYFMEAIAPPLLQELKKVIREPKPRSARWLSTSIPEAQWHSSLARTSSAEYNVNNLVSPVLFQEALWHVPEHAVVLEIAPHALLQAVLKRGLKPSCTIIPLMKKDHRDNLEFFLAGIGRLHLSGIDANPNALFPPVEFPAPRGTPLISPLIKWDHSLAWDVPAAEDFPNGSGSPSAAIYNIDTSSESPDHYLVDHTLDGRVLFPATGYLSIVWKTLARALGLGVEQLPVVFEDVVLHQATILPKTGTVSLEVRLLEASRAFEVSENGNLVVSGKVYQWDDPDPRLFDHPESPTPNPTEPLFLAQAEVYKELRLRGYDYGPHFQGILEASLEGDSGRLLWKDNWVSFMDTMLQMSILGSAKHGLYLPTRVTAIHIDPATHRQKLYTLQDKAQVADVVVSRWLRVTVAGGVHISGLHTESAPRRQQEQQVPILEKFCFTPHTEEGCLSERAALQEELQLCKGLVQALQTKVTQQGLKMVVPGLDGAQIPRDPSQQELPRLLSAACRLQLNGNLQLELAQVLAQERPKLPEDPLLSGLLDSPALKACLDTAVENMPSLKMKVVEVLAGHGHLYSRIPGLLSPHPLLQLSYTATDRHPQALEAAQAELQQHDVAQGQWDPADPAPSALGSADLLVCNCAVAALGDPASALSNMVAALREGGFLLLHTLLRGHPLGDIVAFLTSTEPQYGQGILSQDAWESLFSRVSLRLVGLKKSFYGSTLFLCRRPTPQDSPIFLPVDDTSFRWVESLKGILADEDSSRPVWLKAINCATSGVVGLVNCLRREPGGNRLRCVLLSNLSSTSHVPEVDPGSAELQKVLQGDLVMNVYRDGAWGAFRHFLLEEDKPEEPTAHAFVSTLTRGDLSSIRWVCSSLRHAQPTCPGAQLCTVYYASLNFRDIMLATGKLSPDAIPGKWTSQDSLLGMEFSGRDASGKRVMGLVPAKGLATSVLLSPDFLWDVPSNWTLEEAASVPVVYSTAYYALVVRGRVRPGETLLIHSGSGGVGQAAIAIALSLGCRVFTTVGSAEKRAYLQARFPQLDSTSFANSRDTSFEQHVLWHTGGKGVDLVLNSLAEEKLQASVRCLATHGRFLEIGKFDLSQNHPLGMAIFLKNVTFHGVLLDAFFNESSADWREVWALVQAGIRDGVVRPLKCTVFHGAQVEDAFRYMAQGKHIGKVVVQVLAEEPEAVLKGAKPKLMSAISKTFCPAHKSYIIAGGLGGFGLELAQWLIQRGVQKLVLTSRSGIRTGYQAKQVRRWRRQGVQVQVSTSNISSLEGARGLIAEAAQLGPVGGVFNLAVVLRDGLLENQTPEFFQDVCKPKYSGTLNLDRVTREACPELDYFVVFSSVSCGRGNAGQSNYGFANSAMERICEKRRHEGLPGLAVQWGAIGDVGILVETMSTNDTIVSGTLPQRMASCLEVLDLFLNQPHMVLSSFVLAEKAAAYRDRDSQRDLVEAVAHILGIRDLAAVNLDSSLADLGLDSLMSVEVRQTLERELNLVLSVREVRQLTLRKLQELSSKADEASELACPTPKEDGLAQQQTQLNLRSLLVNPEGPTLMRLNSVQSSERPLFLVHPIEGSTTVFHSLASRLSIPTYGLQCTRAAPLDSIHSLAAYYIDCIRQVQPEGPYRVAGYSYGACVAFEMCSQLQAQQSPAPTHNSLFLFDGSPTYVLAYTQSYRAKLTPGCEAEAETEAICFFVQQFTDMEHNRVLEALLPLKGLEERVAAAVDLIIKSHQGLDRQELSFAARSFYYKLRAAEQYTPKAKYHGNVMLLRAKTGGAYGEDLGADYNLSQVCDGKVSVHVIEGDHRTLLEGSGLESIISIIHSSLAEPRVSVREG

Row | Structure (SMILES) | IC50 [nM]
1 | CC(c1ccc(-c2ccc3cccnc3c2Cl)cc1)C1CCN(C(=O)[C@H]2CCCO2)CC1 (mixture of isomers) [Example 74, (4-{1-[4-(8-Chloroquinolin-7-yl)-phenyl]-ethyl}-piperidin-1-yl)-(R)-tetrahydrofuran-2-yl-methanone] | 1 to 99
2 | CCC(=O)N1CCC(C(O)c2ccc(-c3ccc4cnccc4c3)cc2F)CC1 (centres unmarked) [Example 128, 1-{4-[(2-Fluoro-4-isoquinolin-6-yl-phenyl)-hydroxy-methyl]-piperidin-1-yl}-propan-1-one] | 1 to 99
3 | O=C(C1CC1)N1CCC(C2(c3ccc(-c4cnc5ccccc5c4)cc3)OCCO2)CC1 [Example 141, Cyclopropyl-(4-[2-(4-quinolin-3-yl-phenyl)-1,3-dioxolan-2-yl]-piperidin-1-yl)-methanone] | 100 to 999
4 | CCC(=O)N1CCC(C(=O)c2ccc(-c3ccc4cnccc4c3)cc2F)CC1 [Example 127, 1-[4-(2-Fluoro-4-isoquinolin-6-yl-benzoyl)-piperidin-1-yl]-propan-1-one] | 1 to 99
5 | O=C([C@H]1CCCO1)N1CCC(Cc2ccc(-c3ccc4cccnc4c3Cl)cc2)CC1 [Example 31, {4-[4-(8-Chloroquinolin-7-yl)-benzyl]-piperidin-1-yl}-(R)-tetrahydrofuran-2-yl-methanone] | 1 to 99
6 | CN(C)S(=O)(=O)N1CCC(C2(c3ccc(-c4ccc5ncccc5c4)cc3)OCCO2)CC1 [Example 100, 4-[2-(4-Quinolin-6-yl-phenyl)-1,3-dioxolan-2-yl]-piperidine-1-sulfonic acid dimethylamide] | 1000 to 10000
7 | CCC(=O)N1CCC(C(C)c2ccc(-c3ccc4cccnc4c3)cc2)CC1 (centres unmarked) [Example 42, 1-{4-[1-(4-Quinolin-7-yl-phenyl)-ethyl]-piperidin-1-yl}-propan-1-one] | 1 to 99
8 | CCOC(C)(c1ccc(-c2cnc3ccccc3c2)cc1)C1CCN(C(=O)CC)CC1 (centres unmarked) [Example 206, 1-{4-[1-Ethoxy-1-(4-quinolin-3-yl-phenyl)-ethyl]-piperidin-1-yl}-propan-1-one] | 100 to 999
9 | CCC(=O)N1CCC(F)(Cc2ccc(-c3cncc4ccccc34)cc2)CC1 [Example 167, 1-(4-fluoro-4-(4-(isoquinolin-4-yl)benzyl)piperidin-1-yl)propan-1-one] | 1 to 99
10 | CCC(=O)N1CCC(C(=O)c2ccc(-c3ccc4cnccc4c3)cc2)C1 (centres unmarked) [Example 133, 1-[3-(4-Isoquinolin-6-yl-benzoyl)-pyrrolidin-1-yl]-propan-1-one] | 1000 to 10000
11 | CC(C)C(=O)N1CCC(C2(c3ccc(-c4ccc5cccnc5c4)cc3)OCCCO2)CC1 [Example 121, 2-Methyl-1-{4-[2-(4-quinolin-7-yl-phenyl)-1,3-dioxinan-2-yl]-piperidin-1-yl}-propan-1-one] | 1000 to 10000
12 | CC(c1ccc(-c2ccc3cccnc3c2)cc1)C1CCN(C(=O)[C@H]2CCCO2)CC1 (stereo partly drawn) [Example 51, {4-[1-(4-Quinolin-7-yl-phenyl)-ethyl]-piperidin-1-yl}-(R)-tetrahydrofuran-2-yl-methanone] | 1 to 99
13 | O=C(C1CC1)N1CCC(C2(c3ccc(-c4ccc5cccnc5c4)cc3)CC2)CC1 [Example 45, Cyclopropyl-{4-[1-(4-quinolin-7-yl-phenyl)-cyclopropyl]-piperidin-1-yl}-methanone] | 100 to 999
14 | Cc1c(-c2ccc(CC3CCN(C(=O)[C@H]4CCCO4)CC3)cc2)ccc2nccn12 [Example 93, {4-[4-(5-Methyl-imidazo[1,2-a]pyridin-6-yl)-benzyl]-piperidin-1-yl}-(R)-tetrahydrofuran-2-yl-methanone] | 1 to 99
15 | O=C([C@H]1CCCO1)N1CCC(Cc2ccc(-c3cc4ccccc4cn3)cc2)CC1 [Example 28, [4-(4-Isoquinolin-3-yl-benzyl)-piperidin-1-yl]-(R)-tetrahydrofuran-2-yl-methanone] | 1 to 99
16 | CCC(=O)N1CCC(/C(=N\OC)c2ccc(-c3cnc4ccccc4c3)cc2)CC1 [Example 46, 1-{4-[[(E:Z)-Methoxyimino]-(4-quinolin-3-yl-phenyl)-methyl]-piperidin-1-yl}-propan-1-one] | 1 to 99
17 | Cc1nccc2cc(-c3ccc(C4(C5CCN(C(=O)[C@H]6CCCO6)CC5)CC4)cc3)ccc12 [Example 78, (4-{1-[4-(1-Methylisoquinolin-6-yl)-phenyl]-cyclopropyl}-piperidin-1-yl)-(R)-tetrahydrofuran-2-yl-methanone] | 1000 to 10000
18 | CCC(=O)N1CCC(C(NC(C)=O)c2ccc(-c3cnc4ccccc4c3)cc2)CC1 (centres unmarked) [Example 53, N-[(1-Propionylpiperidin-4-yl)-(4-quinolin-3-yl-phenyl)-methyl]-acetamide] | 1000 to 10000
19 | COC(=O)N1CCC(C(=O)c2ccc(-c3cnc4ccccc4c3)cc2F)CC1 [Example 144, 4-(2-Fluoro-4-quinolin-3-yl-benzoyl)piperidine-1-carboxylic Acid Methyl Ester] | 1000 to 10000
20 | CCONC(=O)N1CCC(Cc2ccc(-c3ccc4cccnc4c3C)cc2)CC1 [Example 232, N-ethoxy-4-[[4-(8-methyl-7-quinolyl)phenyl]methyl]piperidine-1-carboxamide] | 1 to 99
21 | CC(C)C(=O)N1CCC(C2(c3ccc(-c4ccc5ccncc5c4)cc3)OCCO2)CC1 [Example 117, 1-{4-[2-(4-Isoquinolin-7-yl-phenyl)-1,3-dioxolan-2-yl]-piperidin-1-yl}-2-methyl-propan-1-one] | 1000 to 10000
22 | CC(c1ccc(-c2cnc3ccccc3c2)cc1)C1CCN(C(=O)[C@H]2CCCO2)CC1 (stereo partly drawn) [Example 52, {4-[1-(4-Quinolin-3-yl-phenyl)-ethyl]-piperidin-1-yl}-(R)-tetrahydrofuran-2-yl-methanone] | 1 to 99
23 | O=C([C@H]1CCCO1)N1CCC(C(F)(F)c2ccc(-c3cnc4ccccc4c3)cc2)CC1 [Example 18, {4-[Difluoro-(4-quinolin-3-yl-phenyl)-methyl]-piperidin-1-yl}-(R)-tetrahydrofuran-2-yl-methanone] | 1 to 99
24 | CCC(=O)N1CCC(C(C)c2ccc(-c3cnc4ccccc4c3)cc2)CC1 (centres unmarked) [Example 39, 1-(4-(1-(4-(quinolin-3-yl)phenyl)ethyl)piperidin-1-yl)propan-1-one] | 1 to 99

More lines, now with the values ahead:

Row | IC50 [nM] | Structure (SMILES)
25 | 100 to 999 | CC(C)(c1ccc(-c2cnc3ccccc3c2)cc1)C1CCN(C(=O)C2CC2)CC1 [Example 204, Cyclopropyl(4-(2-(4-(quinolin-3-yl)phenyl)propan-2-yl)piperidin-1-yl)methanone]
26 | 1 to 99 | COC(C)(c1ccc(-c2cnc3ccccc3c2)cc1)C1CCN(C(=O)C2CC2)CC1 (centres unmarked) [Example 209, Cyclopropyl-{4-[1-methoxy-1-(4-quinolin-3-yl-phenyl)-ethyl]-piperidin-1-yl}-methanone]
27 | 1 to 99 | O=C(C1CC1)N1CCC(F)(Cc2ccc(-c3cnc4ccccc4c3Cl)cc2)CC1 [Example 197, (4-(4-(4-Chloroquinolin-3-yl)benzyl)-4-fluoropiperidin-1-yl)(cyclopropyl)-methanone]
28 | 100 to 999 | O=C(C1CC1)N1CCC(F)(Cc2ccc(-c3ccc4cccnc4c3)cc2)CC1 [Example 173, Cyclopropyl(4-fluoro-4-(4-(quinolin-7-yl)benzyl)piperidin-1-yl)methanone]
29 | 1 to 99 | CCC(=O)N1CCC(Cc2ccc(-c3cnc4ccccc4c3C)cc2)CC1 [Example 12, 1-{4-[4-(4-Methylquinolin-3-yl)-benzyl]-piperidin-1-yl}-propan-1-one]
30 | 100 to 999 | O=C(C1CC1)N1CC=C(Cc2ccc(-c3cnc4ccccc4c3Cl)cc2)CC1 [Example 198, (4-(4-(4-Chloroquinolin-3-yl)benzyl)-3,6-dihydropyridin-1(2H)-yl)(cyclopropyl)methanone]
31 | 100 to 999 | CCC(=O)N1CCC(C(F)(F)c2ccc(-c3cnc4ccccc4c3C)cc2)CC1 [Example 9, 1-(4-{difluoro-[4-(4-methyl-quinolin-3-yl)-phenyl]-methyl}-piperidin-1-yl)-propan-1-one]
32 | 100 to 999 | Cc1c(-c2ccc(CC3=CCN(C(=O)C4CC4)CC3)cc2)cnc2ccccc12 [Example 192, Cyclopropyl(4-(4-(4-methylquinolin-3-yl)benzyl)-5,6-dihydropyridin-1(2H)-yl)methanone]
33 | 100 to 999 | O=C(C1CC1)N1CC=C(Cc2ccc(-c3ccc4cnccc4c3)cc2)CC1 [Example 176, Cyclopropyl(4-(4-(isoquinolin-6-yl)benzyl)-5,6-dihydropyridin-1(2H)-yl)methanone]
34 | 1000 to 10000 | CCC(=O)N1CC=C(Cc2ccc(-c3cncc4ccccc34)cc2)CC1 [Example 168, 1-(4-(4-(isoquinolin-4-yl)benzyl)-5,6-dihydropyridin-1(2H)-yl)propan-1-one]
35 | 100 to 999 | O=C(C1CC1)N1CCC(C(F)(F)c2ccc(-c3cnc4ccccc4c3)cc2)CC1 [Example 17, Cyclopropyl-{4-[difluoro-(4-quinolin-3-yl-phenyl)-methyl]-piperidin-1-yl}-methanone]
